{"source": "patent US12630536B2", "about": "“Cyanotriazine derivative, preparation method therefor, and application thereof” (Chengdu Fanxi Biopharma Co., LTD., priority 2020, dated 2026)", "key": {"[1]": {"molecular_target": "T1, THR-β ligand-binding domain (H6-THR-β) (Homo sapiens, UniProt P10828)", "T1 construct": "made in house; host or cells: Escherichia coli BL21 (DE3), vector pET28a", "T1 sequence (P10828 217-461 limits assumed)": "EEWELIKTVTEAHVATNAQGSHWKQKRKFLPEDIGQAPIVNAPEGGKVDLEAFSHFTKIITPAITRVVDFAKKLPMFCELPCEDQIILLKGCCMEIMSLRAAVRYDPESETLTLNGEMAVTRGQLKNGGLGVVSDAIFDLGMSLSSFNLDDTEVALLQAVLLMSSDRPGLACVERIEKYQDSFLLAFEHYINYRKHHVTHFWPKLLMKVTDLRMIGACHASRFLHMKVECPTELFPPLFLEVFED", "T1 sequence (P19793 225-462 partner limits assumed)": "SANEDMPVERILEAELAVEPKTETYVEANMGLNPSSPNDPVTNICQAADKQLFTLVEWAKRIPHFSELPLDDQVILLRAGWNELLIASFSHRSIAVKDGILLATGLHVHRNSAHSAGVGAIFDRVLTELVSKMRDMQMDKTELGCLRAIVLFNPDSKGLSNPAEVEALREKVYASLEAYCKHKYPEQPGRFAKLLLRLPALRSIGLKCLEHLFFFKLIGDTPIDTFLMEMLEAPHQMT", "T1 sequence (Q15596 679-703 partner limits assumed)": "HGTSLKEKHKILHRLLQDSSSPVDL", "assay": "Co-activated peptide recruitment test of THR-β/RXR/GRIP1 (TR_LBD agonist detection, HTRF)", "format": "biochemical", "protocol": "(§1) A ligand binding domain of THR-β (amino acids 148-410) (H6-THR-β) and a ligand binding domain of THR-α (amino acids 202-461) (H6-TRα) were cloned into E. coli expression vector pET28a (Novagen, Milwaukee, Wis.) containing N-terminal six His sequences. The resulting recombinant six-His-tagged protein was produced in E. coli BL21(DE3) cells. The cells were grown in Terrific Broth (self-used self-prepared Bacto tryptone (3.3%, w/v), Difico yeast extract (2.0%, w/v) and NaCl (0.5%, w/v) medium), incubated at 25° C. for 24 hours using a shake flask in 0.2 mM IPTG, harvested or dissolved with 5 volumes of buffer A (0.05 M Tris, 0.3 M NaCl, 1% W/V betaine, 0.01 M imidazole, 0.02 M b-mercaptoethanol, pH 8.0). Lysozyme (1.0 mg/ml, Sigma) and CompleteProtease Inhibitor Cocktail (Roche Diagnostics Gmbh) were added to the slurry and the solution was sonicated for one minute and 5 times at 4° C. The suspension was centrifuged at 127,300 RCF for 2 hours in a Ti45 Beckmann rotor and the supernatant was loaded onto an NI NTAAgarose (Quigen 30210) column. After washing with the buffer A, […] or H6-THR-α was eluted with the buffer A containing 0.25 M imidazole.\n(§2) 30 microliters of H6-THR-β (50 nM) or H6-THR-α in 50 mM Hepes, pH 7.0, 1 mM DTT, 0.05% NP40 and 0.2 mg/ml BSA (binding buffer) were mixed with an equal volume of EE-RxRα (50 nM) in the binding buffer. […] Aliquot ([…]) was transferred to a 384-well black microtiter plate. HTRF signal was read on a Victor5 reader (PerkinElmer Life and Analytical Sciences). EC50 was calculated.\n(§3) Gene clones expressing a ligand-binding domain (amino acids 148-410) of THR-β (H6-THR-β) and a ligand-binding domain (amino acids 202-461) of THR-α (H6-THR-α) were inserted into an Escherichia coli expression vector pET28a, and the expression vector contained one N-terminal 6-His sequence. The expression vector was introduced into an Escherichia coli BL21 (DE3) strain to produce a recombinant protein with a His tag. […] After finishing culturing, a bacterium in culture was collected, and the collected bacterium was resuspended with a lysis solution (0.05 M Tris, 0.3 M NaCl, 1% W/V betaine, 0.01 M imidazole, 0.02 M β-mercaptoethanol, and pH 8.0) with a volume 5 times that of the bacterium, and lysozyme and protease inhibitors were added at the same time, the treated bacteria was subjected to ultrasonic lysis (5 times per minute) in ice bath (4° C.). A lysed suspension was centrifuged at 127300 RCF for 2 hours, a supernatant was loaded on a NI_NTA agarose (Quigen 30210) column, and after washing with a buffer A, an H6-TRβ or H6-TRα protein was eluted with the buffer A containing 0.25 M imidazole.\n(§4) A human retinol X receptor (amino acid 225-462) (RxRα) was subjected to engineering modification, so that an N-terminal of the human retinol X receptor had His6 and EE(EFMPME) tags, and then the human retinol X receptor was cloned into a pACYC vector, and produced a His6 EEtagged protein in Escherichia coli. IPTG with a final concentration of 0.1 mM was added into the culture medium for induction, and cultured in a shaking flask at 18° C. for 18 hours. After finishing culturing, a bacterium in culture was collected, and the collected bacterium was re-suspended with a lysis solution (0.05 M Tris, 0.3 M NaCl, 1% W/V betaine, 0.01 M imidazole, 0.02 β-mercaptoethanol, and pH 8.0) with a volume 5 times that of the bacterium, lysozyme and protease inhibitors were added at the same time, and stirred at 4° C. for 30 minutes. Then, a suspension was subjected to an ultrasonic treatment at 4° C. for 30 seconds for 5 times. The suspension was collected, and centrifuged at 12000 RCF for 20 minutes. A supernatant was collected, and the supernatant was filtered with a membrane with a pore size of 0.45 μm, and then added with 0.5% NP-40."}, "[2]": {"molecular_target": "T2, THR-α ligand-binding domain (H6-THR-α) (Homo sapiens, UniProt P10827)", "T2 construct": "made in house; host or cells: Escherichia coli BL21 (DE3), vector pET28a", "T2 sequence (P10827 148-410 isoform P10827-2 limits assumed)": "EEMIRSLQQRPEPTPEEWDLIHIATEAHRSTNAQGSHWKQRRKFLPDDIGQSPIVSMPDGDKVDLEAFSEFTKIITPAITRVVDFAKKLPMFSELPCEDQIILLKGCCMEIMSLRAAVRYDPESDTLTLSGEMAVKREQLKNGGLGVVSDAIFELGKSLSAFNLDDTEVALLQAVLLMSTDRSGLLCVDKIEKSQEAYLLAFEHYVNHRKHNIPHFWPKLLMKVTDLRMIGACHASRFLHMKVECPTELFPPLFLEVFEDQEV", "T2 sequence (P19793 225-462 partner limits assumed)": "T1 sequence (P19793 225-462 partner limits assumed)", "T2 sequence (Q15596 679-703 partner limits assumed)": "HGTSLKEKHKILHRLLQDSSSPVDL", "assay": "Co-activated peptide recruitment test of THR-α/RXR/GRIP1 (TR_LBD agonist detection, HTRF)", "format": "biochemical", "protocol": "as §1, §2, §3, §4"}, "[3]": {"tested_on": "golden hamsters fed with high-fat feedstuffs (hyperlipidemia model)", "assay": "In-vivo pharmacodynamic test, high-fat feed hyperlipidemia model", "settings": "oral once per day, 4 weeks", "protocol": "Administration mode: oral administration was carried out once per day with a time interval of 24 hours for 4 consecutive weeks. During the experiment, the animals were weighed twice per week, and a remaining amount and an adding amount of the feedstuffs were recorded before each blood sampling detection for calculating a food intake of each group of animals during administration.\nThe food utilization rate represents a weight gain in gram of an animal taking per 100 g of feedstuffs, so that food utilization rate=weight gain (g)/food intake (100 g)×100%."}}}
{"smiles": "Cn1cnc2ccc(Oc3c(Br)cc(-n4nc(C#N)c(=O)[nH]c4=O)cc3Br)cc21", "note": "[Compound 1, 2-(3,5-dibromo-4-((1-methyl-1H-benzo[d]imidazol-6-yl)oxy)phenyl)-3,5-dioxo-2,3,4,5-tetra hydro-1,2,4-triazine-6-carbonitrile]", "values": [{"measurement": "EC50", "setting": "[1]; Detection of TR_LBD agonist, read-out: TR_beta_EC50", "result": 4.96, "unit": "nM"}, {"measurement": "Maximum activity ratio (A520/A495)", "setting": "[1]; TR_LBD agonist, TR_β", "result": 4.02}, {"measurement": "Measurement of cpd/T3 (maximum ratio)", "setting": "[1]; TR_LBD agonist, TR_β, maximum relative to T3", "result": 73.4, "unit": "%"}, {"measurement": "α/β", "setting": "[1]; TR_LBD agonist, ratio TR_α EC50 / TR_β EC50", "result": 7.13}, {"measurement": "EC50", "setting": "[2]; Detection of TR_LBD agonist, read-out: TR_α_EC50", "result": 35.3, "unit": "nM"}, {"measurement": "Maximum activity ratio (A520/A495)", "setting": "[2]; TR_LBD agonist, TR_α", "result": 3.83}, {"measurement": "Measurement of cpd/T3 (maximum ratio)", "setting": "[2]; TR_LBD agonist, TR_α, maximum relative to T3", "result": 71.1, "unit": "%"}, {"measurement": "food utilization rate (weight gain (g)/food intake (100 g)×100%)", "setting": "[3]", "result": "reduced significantly"}, {"measurement": "level of triglyceride in blood (TG)", "setting": "[3]; 5 and 15 mg/kg, compared with the model group", "result": "significantly reduces"}]}
